Assay results: article PMC12543283, “TastepepAI: An artificial intelligence platform for taste peptide de novo design” (PLOS Computational Biology, 2025)
Ends that are not written are not given here.

Experiments:
[1] = Electronic tongue analysis (Taste-Sensing System SA 402B); parameters: unit not given here; conditions: reference solution 30 mM KCl + 0.3 mM tartaric acid as baseline, first measurement excluded; for Umami: sensor AAE; for Umami / Bitter / Sweet: detection threshold 0, room temperature; for Umami / Bitter / Sour / Salty: four replicates; for Sour: detection threshold -13, room temperature; for Salty: detection threshold -6, room temperature; for Sweet: measured five times
Summary of the method: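 Room-temperature electronic-tongue readings with five taste probes, calibrated against a reference of 30 mM KCl and 0.3 mM tartaric acid. Samples at 0.1 mg/mL and 1.0 mg/mL were measured four times, sweetness five times, and the first run was dropped. Detection cut-offs were sour −13, salty −6, others 0.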

[2] = test system: human bronchial epithelial cells (BEAS-2B)
[3] = test system: human embryonic kidney cells (HEK293T)
Method: The cytotoxicity of 73 synthetic peptides was evaluated using four human cell lines: human pancreatic ductal epithelial cells (HPNE), human embryonic kidney cells (HEK293T), human umbilical vein endothelial cells (HUVEC), and human bronchial epithelial cells (BEAS-2B). When cell density reached 70% confluence, the complete culture medium was replaced with serum-free maintenance medium, and peptides were added at a final concentration of 100 μM for 36 h. Control groups received only serum-free maintenance medium without peptides. Cell proliferation was assessed using the CCK-8 assay kit (Solarbio, CA1210) according to the manufacturer’s instructions.

[4] = test system: human pancreatic ductal epithelial cells (HPNE)
[5] = test system: human umbilical vein endothelial cells (HUVEC)

| Substance | Umami ([1]; peptide 0.1 mg/mL) | Umami ([1]; peptide 1 mg/mL) | Bitter ([1]; sensor C00, peptide 0.1 mg/mL) | Bitter ([1]; sensor C00, peptide 1 mg/mL) | Sour ([1]; sensor CA0, peptide 0.1 mg/mL) | Sour ([1]; sensor CA0, peptide 1 mg/mL) | Salty ([1]; sensor CT0, peptide 0.1 mg/mL) | Salty ([1]; sensor CT0, peptide 1 mg/mL) | Sweet ([1]; sensor GL1, peptide 0.1 mg/mL) | Sweet ([1]; sensor GL1, peptide 1 mg/mL) | Average cell viability, BEAS-2B [2] | Cell viability, BEAS-2B, Data1 [2] | Cell viability, BEAS-2B, Data2 [2] | Cell viability, BEAS-2B, Data3 [2] | Average cell viability, HEK293T [3] | Cell viability, HEK293T, Data1 [3] | Cell viability, HEK293T, Data2 [3] | Cell viability, HEK293T, Data3 [3] | Average cell viability, HPNE [4] | Cell viability, HPNE, Data1 [4] | further results |
| --- | --- | --- | --- | --- | --- | --- | --- | --- | --- | --- | --- | --- | --- | --- | --- | --- | --- | --- | --- | --- | --- |
| EDGPHGD [TaPep45] | 0.96 | -5.11 | 7.77 | 4.03 | -1.77 | 12.61 | -19.03 | 9.35 | 4.54 | -4.05 | 94.75 | 89.83 | 99.50 | 94.92 | 97.35 | 98.99 | 96.25 | 96.81 | 101.66 | 107.42 | Cell viability, HPNE, Data2 [4]: 100.73; Cell viability, HPNE, Data3 [4]: 96.84; Average cell viability, HUVEC [5]: 98.64; Cell viability, HUVEC, Data1 [5]: 103.46; Cell viability, HUVEC, Data2 [5]: 90.77; Cell viability, HUVEC, Data3 [5]: 101.70 |
| FNGVE [TaPep61] | 3.14 | -2.71 | 6.59 | 3.33 | -7.21 | 6.60 | -23.88 | 3.55 | 8.89 | -2.71 | 99.57 | 95.41 | 109.57 | 93.72 | 98.80 | 99.65 | 96.91 | 99.84 | 94.34 | 84.66 | Cell viability, HPNE, Data2 [4]: 82.36; Cell viability, HPNE, Data3 [4]: 116.01; Average cell viability, HUVEC [5]: 99.47; Cell viability, HUVEC, Data1 [5]: 89.49; Cell viability, HUVEC, Data2 [5]: 104.82; Cell viability, HUVEC, Data3 [5]: 104.10 |
| AQKQE [TaPep53] | 2.86 | -3.47 | 7.88 | 2.74 | -6.36 | 8.92 | -19.95 | 13.59 | 9.02 | -4.92 | 99.50 | 92.92 | 110.37 | 95.21 | 96.06 | 101.55 | 93.50 | 93.12 | 100.53 | 111.51 | Cell viability, HPNE, Data2 [4]: 101.33; Cell viability, HPNE, Data3 [4]: 88.75; Average cell viability, HUVEC [5]: 99.25; Cell viability, HUVEC, Data1 [5]: 90.21; Cell viability, HUVEC, Data2 [5]: 95.96; Cell viability, HUVEC, Data3 [5]: 111.60 |
| EKGVQ [TaPep64] | 1.91 | -4.02 | 7.39 | 3.04 | -4.25 | 9.90 | -21.79 | 10.50 | 4.85 | -4.54 | 103.99 | 103.09 | 103.59 | 105.28 | 103.19 | 103.53 | 102.87 | 103.15 | 98.34 | 89.85 | Cell viability, HPNE, Data2 [4]: 95.04; Cell viability, HPNE, Data3 [4]: 110.12; Average cell viability, HUVEC [5]: 104.98; Cell viability, HUVEC, Data1 [5]: 101.54; Cell viability, HUVEC, Data2 [5]: 110.56; Cell viability, HUVEC, Data3 [5]: 102.82 |
| LQPDAGK [TaPep6] | 1.99 | -5.07 | 7.90 | 2.72 | -4.43 | 10.67 | -19.24 | 12.20 | 8.22 | -5.48 | 102.76 | 91.82 | 107.88 | 108.57 | 98.83 | 101.83 | 97.29 | 97.38 | 97.97 | 95.64 | Cell viability, HPNE, Data2 [4]: 99.55; Cell viability, HPNE, Data3 [4]: 98.73; Average cell viability, HUVEC [5]: 102.10; Cell viability, HUVEC, Data1 [5]: 91.96; Cell viability, HUVEC, Data2 [5]: 115.19; Cell viability, HUVEC, Data3 [5]: 99.15 |
| PPLENT [TaPep39] | 0.99 | -5.89 | 7.69 | 2.99 | -1.65 | 15.66 | -18.68 | 12.96 | 6.53 | -7.82 | 115.22 | 118.05 | 113.86 | 113.76 | 100.06 | 96.81 | 97.19 | 106.18 | 99.87 | 95.44 | Cell viability, HPNE, Data2 [4]: 90.95; Cell viability, HPNE, Data3 [4]: 113.21; Average cell viability, HUVEC [5]: 107.56; Cell viability, HUVEC, Data1 [5]: 101.22; Cell viability, HUVEC, Data2 [5]: 113.36; Cell viability, HUVEC, Data3 [5]: 108.09 |
| DFKEELPK [TaPep42] | 0.30 | -6.40 | 7.41 | 2.96 | -0.03 | 16.30 | -15.26 | 15.72 | 3.04 | -6.66 | 106.12 | 95.21 | 103.99 | 119.14 | 100.35 | 101.45 | 95.30 | 104.29 | 106.29 | 109.92 | Cell viability, HPNE, Data2 [4]: 101.63; Cell viability, HPNE, Data3 [4]: 107.32; Average cell viability, HUVEC [5]: 100.96; Cell viability, HUVEC, Data1 [5]: 109.77; Cell viability, HUVEC, Data2 [5]: 97.95; Cell viability, HUVEC, Data3 [5]: 95.16 |
| DQKVLA [TaPep3] | 2.16 | -4.90 | 7.84 | 2.95 | -4.64 | 12.21 | -20.13 | 13.20 | 7.95 | -6.65 | 108.77 | 109.77 | 102.49 | 114.06 | 94.20 | 93.79 | 84.04 | 104.76 | 93.24 | 97.04 | Cell viability, HPNE, Data2 [4]: 98.74; Cell viability, HPNE, Data3 [4]: 83.96; Average cell viability, HUVEC [5]: 98.83; Cell viability, HUVEC, Data1 [5]: 114.40; Cell viability, HUVEC, Data2 [5]: 89.41; Cell viability, HUVEC, Data3 [5]: 92.68 |
| FEGDQDA [TaPep18] | 1.84 | -5.33 | 6.92 | 3.77 | -3.88 | 13.35 | -22.88 | 7.99 | 5.97 | -5.91 | 104.49 | 109.67 | 103.49 | 100.30 | 103.66 | 104.57 | 105.99 | 100.41 | 102.53 | 116.21 | Cell viability, HPNE, Data2 [4]: 89.05; Cell viability, HPNE, Data3 [4]: 102.33; Average cell viability, HUVEC [5]: 104.36; Cell viability, HUVEC, Data1 [5]: 97.71; Cell viability, HUVEC, Data2 [5]: 114.64; Cell viability, HUVEC, Data3 [5]: 100.75 |
